From patent publication US20230265151A1, “GIP/GLP1 CO-AGONIST COMPOUNDS” (priority 2020, published 2023)
Where two headings read alike, the source gives them in different places. *1 amine or outer side, *2 acyl side, *3 side chain or, on linkers, in order; H or OH if unused. Where a SMILES comes first, the peptide text is derived from it. Side-chain parts run from the residue outwards. [ ]: non-standard residue; d: D form. The star is where a group is joined. Decanoyl(10-(4-HOOC-PhO)) = O=C(O)c1ccc(OCCCCCCCCCC(=O)*)cc1; αMePhe(2-F) = C[C@](N)(Cc1ccccc1F)C(=O)O; γGlu = O=C(O)[C@H](CCC(=O)[*:2])N[*:1]; αMeY = C[C@](N)(Cc1ccc(O)cc1)C(=O)O; αMeL = CC(C)C[C@](C)(N)C(=O)O; Orn = NCCC[C@H](N)C(=O)O; AEEA = NCCOCCOCC(=O)O; Aib = CC(C)(N)C(=O)O

Tests used:
Assay type in all cases: cell-based
hGCGR = target: T1, hGCGR (Homo sapiens, UniProt P47871); test: Functional cAMP formation (HTRF) in HEK-293 clonal cells expressing hGCGR, 0.1% bovine casein, without or with 1.0% human serum albumin; conditions: cAMP, 37° C.
T1 construct: expressed in transfected cells
T1 sequence (P47871 26-477): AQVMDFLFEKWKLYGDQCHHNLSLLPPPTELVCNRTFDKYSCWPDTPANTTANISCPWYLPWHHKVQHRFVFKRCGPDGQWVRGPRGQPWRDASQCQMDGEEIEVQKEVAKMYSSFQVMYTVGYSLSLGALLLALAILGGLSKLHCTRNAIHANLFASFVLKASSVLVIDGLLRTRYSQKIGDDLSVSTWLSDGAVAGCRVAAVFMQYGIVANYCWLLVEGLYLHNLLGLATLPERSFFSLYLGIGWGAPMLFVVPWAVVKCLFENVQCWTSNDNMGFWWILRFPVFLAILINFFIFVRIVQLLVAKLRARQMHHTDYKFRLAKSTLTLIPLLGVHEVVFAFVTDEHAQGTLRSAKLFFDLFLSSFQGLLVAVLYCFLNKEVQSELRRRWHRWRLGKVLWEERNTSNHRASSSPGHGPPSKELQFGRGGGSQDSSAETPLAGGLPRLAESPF
Procedure, shortened: (§1)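 Cells were stimulated with peptide for 30 min at 37° C, then intracellular cAMP was measured by competitive HTRF (665/620 nm ratio) and converted to nM using a cAMP standard curve. Relative EC50 and Emax came from four-parameter logistic fits of percent maximal response against peptide concentration.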

hGLP-1R = hGLP-1R (Homo sapiens, UniProt P43220); test: Functional cAMP formation (HTRF) in HEK-293 clonal cells expressing hGLP-1R, 0.1% bovine casein, without or with 1.0% human serum albumin; design: expressed in transfected cells; conditions: for Emax: percent of maximal response to GLP-1(7-36)NH2; for EC50: cAMP, 0.1% bovine casein (no human serum albumin), geometric mean
Chain of hGLP-1R (P43220 24-463): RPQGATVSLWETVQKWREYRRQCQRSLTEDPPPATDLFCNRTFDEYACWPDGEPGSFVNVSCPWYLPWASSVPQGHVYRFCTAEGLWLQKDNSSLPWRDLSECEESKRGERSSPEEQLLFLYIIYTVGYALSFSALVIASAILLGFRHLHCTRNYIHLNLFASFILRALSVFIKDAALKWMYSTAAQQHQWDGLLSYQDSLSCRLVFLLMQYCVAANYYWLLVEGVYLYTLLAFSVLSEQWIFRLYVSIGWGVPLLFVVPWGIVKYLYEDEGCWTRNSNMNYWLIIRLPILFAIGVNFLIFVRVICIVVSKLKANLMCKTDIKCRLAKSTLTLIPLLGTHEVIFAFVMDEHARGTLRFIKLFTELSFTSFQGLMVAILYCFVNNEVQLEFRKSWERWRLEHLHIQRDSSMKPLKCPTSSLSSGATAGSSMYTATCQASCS
Procedure, shortened: as §1

hGIPR = target: T2, hGIPR (Homo sapiens, UniProt P48546); test: Functional cAMP formation (HTRF) in HEK-293 clonal cells expressing hGIPR, 0.1% bovine casein, without or with 1.0% human serum albumin; conditions: for Emax: percent of maximal response to GIP(1-42)NH2; for EC50: cAMP, 0.1% bovine casein (no human serum albumin), geometric mean
T2 construct: expressed in transfected cells
T2 sequence (P48546 22-466): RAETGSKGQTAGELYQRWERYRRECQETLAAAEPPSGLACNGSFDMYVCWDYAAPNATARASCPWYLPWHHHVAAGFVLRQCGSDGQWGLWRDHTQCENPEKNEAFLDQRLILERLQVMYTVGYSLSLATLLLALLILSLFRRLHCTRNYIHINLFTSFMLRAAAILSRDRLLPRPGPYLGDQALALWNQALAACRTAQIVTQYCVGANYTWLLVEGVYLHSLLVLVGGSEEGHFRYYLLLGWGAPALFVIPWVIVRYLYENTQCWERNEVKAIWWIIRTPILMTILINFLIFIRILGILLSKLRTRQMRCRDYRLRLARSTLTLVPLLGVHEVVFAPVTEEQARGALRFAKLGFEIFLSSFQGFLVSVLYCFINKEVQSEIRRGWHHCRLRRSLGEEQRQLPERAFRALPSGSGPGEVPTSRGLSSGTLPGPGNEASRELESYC
Procedure, shortened: as §1

[1] = hGCGR EC50, nM (SEM, n), 0.1% bovine casein (no human serum albumin), geometric mean
[2] = hGCGR EC50, nM (SEM, n), 0.1% bovine casein and 1.0% human serum albumin, geometric mean (SEM, n)
[3] = HEK293, read-out: hGLP-1R Emax, % ± SEM, cAMP, 37° C., 0.1% bovine casein, arithmetic mean
[4] = hGLP-1R EC50, nM (SEM, n), 37° C.
[5] = HEK293, read-out: hGIPR Emax, % ± SEM, cAMP, 37° C., 0.1% bovine casein and 1.0% human serum albumin
[6] = hGIPR EC50, nM (SEM, n), 37° C.
[7] = HEK293, read-out: hGIPR Emax, % ± SEM, cAMP, 37° C., 0.1% bovine casein, arithmetic mean

SMILES | EC50 (hGCGR; [1]) | EC50 (hGCGR; [2]) | Emax (hGLP-1R; [3]) | EC50 (hGLP-1R; [4]) | Emax (hGIPR; [5]) | EC50 (hGIPR; [6]) | Emax (hGLP-1R; HEK293, read-out: hGLP-1R Emax, % ± SEM, cAMP, 37° C., 0.1% bovine casein and 1.0% human serum albumin) | Emax (hGIPR; [7]) | EC50 (hGCGR; 0.1% bovine casein (no human serum albumin), geometric mean, read-out: hGCGR EC50, nM (SEM, n)) | EC50 (hGCGR; 0.1% bovine casein and 1.0% human serum albumin, geometric mean (SEM, n), read-out: hGCGR EC50, nM (SEM, n)) | Emax (hGLP-1R; HEK293, cAMP, 37° C., 0.1% bovine casein, arithmetic mean, read-out: hGLP-1R Emax, % ± SEM) | EC50 (hGLP-1R; 37° C., read-out: hGLP-1R EC50, nM (SEM, n)) | Emax (hGIPR; HEK293, cAMP, 37° C., 0.1% bovine casein and 1.0% human serum albumin, read-out: hGIPR Emax, % ± SEM) | Emax (hGIPR; HEK293, cAMP, 37° C., 0.1% bovine casein, arithmetic mean, read-out: hGIPR Emax, % ± SEM) | EC50 (hGIPR; 37° C., read-out: hGIPR EC50, nM (SEM, n))
CC[C@H](C)[C@H](NC(=O)[C@H](CCCN)NC(=O)[C@H](CC(=O)O)NC(=O)[C@H](CC(C)C)NC(=O)[C@](C)(CC(C)C)NC(=O)[C@@H](NC(=O)C(C)(C)NC(=O)[C@@H](NC(=O)[C@H](CC(=O)O)NC(=O)[C@H](CO)NC(=O)[C@@H](NC(=O)[C@](C)(Cc1ccccc1F)NC(=O)[C@@H](NC(=O)CNC(=O)[C@H](CCC(=O)O)NC(=O)C(C)(C)NC(=O)[C@@H](N)Cc1ccc(O)cc1)[C@@H](C)O)[C@@H](C)O)C(C)C)[C@@H](C)CC)C(=O)N[C@@H](C)C(=O)N[C@@H](CCC(N)=O)C(=O)NC(C)(C)C(=O)N[C@@H](CCC(=O)O)C(=O)N[C@@H](Cc1ccccc1)C(=O)N[C@H](C(=O)N[C@@H](CCCCNC(=O)COCCOCCNC(=O)CC[C@H](NC(=O)CCCCCCCCCOc1ccc(C(=O)O)cc1)C(=O)O)C(=O)N[C@@](C)(Cc1ccc(O)cc1)C(=O)N[C@@H](CC(C)C)C(=O)N[C@H](C(=O)N[C@@H](CCCCNC(=O)COCCOCCNC(=O)CC[C@H](NC(=O)CCCCCCCCCOc1ccc(C(=O)O)cc1)C(=O)O)C(=O)NCC(=O)NCC(=O)N1CCC[C@H]1C(=O)N[C@@H](CO)C(=O)N[C@@H](CO)C(=O)NCC(=O)N[C@@H](C)C(=O)N1CCC[C@H]1C(=O)N1CCC[C@H]1C(=O)N1CCC[C@H]1C(=O)N[C@@H](CO)C(N)=O)[C@@H](C)CC)[C@@H](C)CC [Example 381] | > 9950 nM | > 9950 nM | 105% | 1.1 nM | 90.3% | 0.0784 nM | – | – | – | – | – | – | – | – | –
CC[C@H](C)[C@H](NC(=O)[C@H](CCCN)NC(=O)[C@H](CC(=O)O)NC(=O)[C@H](CC(C)C)NC(=O)[C@](C)(CC(C)C)NC(=O)[C@@H](NC(=O)C(C)(C)NC(=O)[C@@H](NC(=O)[C@H](CC(=O)O)NC(=O)[C@H](CO)NC(=O)[C@@H](NC(=O)[C@](C)(Cc1ccccc1F)NC(=O)[C@@H](NC(=O)CNC(=O)[C@H](CCC(=O)O)NC(=O)C(C)(C)NC(=O)[C@@H](N)Cc1ccc(O)cc1)[C@@H](C)O)[C@@H](C)O)C(C)C)[C@@H](C)CC)C(=O)N[C@@H](C)C(=O)N[C@@H](CCC(N)=O)C(=O)NC(C)(C)C(=O)N[C@@H](CCCCNC(=O)COCCOCCNC(=O)CC[C@H](NC(=O)CCCCCCCCCOc1ccc(C(=O)O)cc1)C(=O)O)C(=O)N[C@@H](Cc1ccccc1)C(=O)N[C@H](C(=O)N[C@H](CCC(=O)O)C(=O)N[C@@](C)(Cc1ccc(O)cc1)C(=O)N[C@@H](CC(C)C)C(=O)N[C@H](C(=O)N[C@@H](CCCCNC(=O)COCCOCCNC(=O)CC[C@H](NC(=O)CCCCCCCCCOc1ccc(C(=O)O)cc1)C(=O)O)C(=O)NCC(=O)NCC(=O)N1CCC[C@H]1C(=O)N[C@@H](CO)C(=O)N[C@@H](CO)C(=O)NCC(=O)N[C@@H](C)C(=O)N1CCC[C@H]1C(=O)N1CCC[C@H]1C(=O)N1CCC[C@H]1C(=O)N[C@@H](CO)C(N)=O)[C@@H](C)CC)[C@@H](C)CC [Example 382] | > 9950 nM | > 9950 nM | – | 0.619 nM | 87.2% | 0.0302 nM | 118% | 97.6% | – | – | – | – | – | – | –
CC[C@H](C)[C@H](NC(=O)[C@H](CCCN)NC(=O)[C@H](CC(=O)O)NC(=O)[C@H](CC(C)C)NC(=O)[C@](C)(CC(C)C)NC(=O)[C@@H](NC(=O)C(C)(C)NC(=O)[C@@H](NC(=O)[C@H](CC(=O)O)NC(=O)[C@H](CO)NC(=O)[C@@H](NC(=O)[C@](C)(Cc1ccccc1F)NC(=O)[C@@H](NC(=O)CNC(=O)[C@H](CCC(=O)O)NC(=O)C(C)(C)NC(=O)[C@@H](N)Cc1ccc(O)cc1)[C@@H](C)O)[C@@H](C)O)C(C)C)[C@@H](C)CC)C(=O)N[C@@H](C)C(=O)N[C@@H](CCC(N)=O)C(=O)NC(C)(C)C(=O)N[C@@H](CCCCNC(=O)COCCOCCNC(=O)COCCOCCNC(=O)CC[C@H](NC(=O)CCCCCCCCCOc1ccc(C(=O)O)cc1)C(=O)O)C(=O)N[C@@H](Cc1ccccc1)C(=O)N[C@H](C(=O)N[C@H](CCC(=O)O)C(=O)N[C@@](C)(Cc1ccc(O)cc1)C(=O)N[C@@H](CC(C)C)C(=O)N[C@H](C(=O)N[C@@H](CCC(=O)O)C(=O)NCC(=O)NCC(=O)N1CCC[C@H]1C(=O)N[C@@H](CO)C(=O)N[C@@H](CO)C(=O)NCC(=O)N[C@@H](C)C(=O)N1CCC[C@H]1C(=O)N1CCC[C@H]1C(=O)N1CCC[C@H]1C(=O)N[C@@H](CO)C(=O)N[C@@H](CCCCNC(=O)COCCOCCNC(=O)COCCOCCNC(=O)CC[C@H](NC(=O)CCCCCCCCCOc1ccc(C(=O)O)cc1)C(=O)O)C(N)=O)[C@@H](C)CC)[C@@H](C)CC [Example 383] (H-Y[Aib]EGT[αMePhe(2-F)]TSDV[Aib]I[αMeL]LD[Orn]IAQ[Aib]K([AEEA-AEEA-γGlu-Decanoyl(10-(4-HOOC-PhO))])FI[dE][αMeY]LIEGGPSSGAPPPSK([AEEA-AEEA-γGlu-Decanoyl(10-(4-HOOC-PhO))])-NH2) | > 9950 nM | > 9950 nM | 105% | 0.306 nM | 82.8% | 0.0147 nM | – | 100% | – | – | – | – | – | – | –
CC[C@H](C)[C@H](NC(=O)[C@H](CC(C)C)NC(=O)[C@](C)(Cc1ccc(O)cc1)NC(=O)[C@@H](CCC(=O)O)NC(=O)[C@@H](NC(=O)[C@H](Cc1ccccc1)NC(=O)[C@H](CCCCNC(=O)COCCOCCNC(=O)COCCOCCNC(=O)CCCCCCCCCCCCC(=O)O)NC(=O)C(C)(C)NC(=O)[C@H](CCC(N)=O)NC(=O)[C@H](C)NC(=O)[C@H](CCCCNC(=O)COCCOCCNC(=O)COCCOCCNC(=O)CCCCCCCCCCCCC(=O)O)NC(=O)[C@H](CCCN)NC(=O)[C@H](CC(=O)O)NC(=O)[C@H](CC(C)C)NC(=O)[C@](C)(CC(C)C)NC(=O)[C@@H](NC(=O)C(C)(C)NC(=O)[C@H](Cc1ccncc1)NC(=O)[C@H](CC(=O)O)NC(=O)[C@H](CO)NC(=O)[C@@H](NC(=O)[C@](C)(Cc1ccccc1F)NC(=O)[C@@H](NC(=O)CNC(=O)[C@H](CCC(=O)O)NC(=O)C(C)(C)NC(=O)[C@@H](N)Cc1ccc(O)cc1)[C@@H](C)O)[C@@H](C)O)[C@@H](C)CC)[C@@H](C)CC)C(=O)N[C@@H](CCC(=O)O)C(=O)NCC(=O)NCC(=O)N1CCC[C@H]1C(=O)N[C@@H](CO)C(=O)N[C@@H](CO)C(=O)NCC(=O)N[C@@H](C)C(=O)N1CCC[C@H]1C(=O)N1CCC[C@H]1C(=O)N1CCC[C@H]1C(=O)N[C@@H](CO)C(N)=O [Example 384] | – | – | – | – | – | – | – | – | > 9950 nM | > 9950 nM | 98.2% | 0.308 nM | 83.5% | 94.5% | 0.0124 nM
